Test system: Staphylococcus aureus ATCC 43300
Experiment: Micro-dilution broth MIC, Staphylococcus aureus
Assay type: cell-based
Settings: ATCC43300, 24 h, 37 °C, read-out: Minimum Inhibitory Concentrations MIC
Method: (§1) The standard strains, Gram-positive: Staphylococcus aureus ATCC […], Enterococcus faecalis Van B ATCC 51299 and Enterococcus faecium VA sensitive ATCC 35667, and Gram-negative: Escherichia coli ATCC 25922, Klebsiella pneumoniae ATCC 700603 and Acinetobacter baumannii ATCC 19606, came from a collection of the Environmental Biology Department, Medical University of Łódź. The standard strains were cultivated in Columbia Agar Medium and incubated at 37 °C for 24 h in aerobic conditions.
(§2) The antibacterial activity of the racemates and E/Z-mixtures was investigated using the micro‑dilution broth method. The compounds were diluted in ethanol. This stock solution was mixed with 100 µL of Mueller-Hinton broth to obtain concentrations from 10 µg/mL to 80 µg/mL. The mixtures were then transferred to 96-well microtiter plates. The microbial suspension was standardised to a cell density of 1.5 × 10^8 CFU, which was equal to an optical density of 0.5 on the Mc Farland scale by a bio-Merieux densitometer; one well was filled with broth only to act as a control for strain growth.

MIC [µg/mL] | Compound
30 | CC(=O)OCC=C(C)CCC=C(C)C(C)CCC=C(C)C (stereo not drawn) [Compound 30, 3,7,8,12-Tetramethyltrideca-2,6,11-trien-1-yl acetate]
24 | CC(=O)OC/C=C(\C)CCC=CC(C)CCC=C(C)C (stereo not drawn) [Compound 31, (E)-3,8,12-Trimethyltrideca-2,6,11-trien-1-yl acetate]
26 | CC(=O)OCC=C(C)CC(C)CCC=C(C)C (stereo not drawn) [Compound 33, 3,5,9-Trimethyldeca-2,8-dien-1-yl acetate]

Test system: Enterococcus faecalis ATCC 51299
Experiment: Micro-dilution broth MIC, Enterococcus faecalis
Assay type: cell-based
Settings: ATCC51299, 24 h, 37 °C, read-out: Minimum Inhibitory Concentrations MIC
Method: as §1, §2

MIC [µg/mL] | Compound
24 | CC(=O)OCC=C(C)CCC=C(C)C(C)CCC=C(C)C (stereo not drawn) [Compound 30, 3,7,8,12-Tetramethyltrideca-2,6,11-trien-1-yl acetate]
20 | CC(=O)OC/C=C(\C)CCC=CC(C)CCC=C(C)C (stereo not drawn) [Compound 31, (E)-3,8,12-Trimethyltrideca-2,6,11-trien-1-yl acetate]
18 | CC(=O)OCC=C(C)CC(C)CCC=C(C)C (stereo not drawn) [Compound 33, 3,5,9-Trimethyldeca-2,8-dien-1-yl acetate]

Test system: Enterococcus faecium ATCC 35667
Experiment: Micro-dilution broth MIC, Enterococcus faecium
Assay type: cell-based
Settings: ATCC35667, 24 h, 37 °C, read-out: Minimum Inhibitory Concentrations MIC
Method: as §1, §2

MIC [µg/mL] | Compound
18 | CC(=O)OCC=C(C)CCC=C(C)C(C)CCC=C(C)C (stereo not drawn) [Compound 30, 3,7,8,12-Tetramethyltrideca-2,6,11-trien-1-yl acetate]
20 | CC(=O)OC/C=C(\C)CCC=CC(C)CCC=C(C)C (stereo not drawn) [Compound 31, (E)-3,8,12-Trimethyltrideca-2,6,11-trien-1-yl acetate]
16 | CC(=O)OCC=C(C)CC(C)CCC=C(C)C (stereo not drawn) [Compound 33, 3,5,9-Trimethyldeca-2,8-dien-1-yl acetate]

Test system: Escherichia coli ATCC 25922
Experiment: Micro-dilution broth MIC, Escherichia coli
Assay type: cell-based
Settings: ATCC25922, 24 h, 37 °C, read-out: Minimum Inhibitory Concentrations MIC
Method: as §1, §2

MIC [µg/mL] | Compound
30 | CC(=O)OCC=C(C)CCC=C(C)C(C)CCC=C(C)C (stereo not drawn) [Compound 30, 3,7,8,12-Tetramethyltrideca-2,6,11-trien-1-yl acetate]
26 | CC(=O)OC/C=C(\C)CCC=CC(C)CCC=C(C)C (stereo not drawn) [Compound 31, (E)-3,8,12-Trimethyltrideca-2,6,11-trien-1-yl acetate]
26 | CC(=O)OCC=C(C)CC(C)CCC=C(C)C (stereo not drawn) [Compound 33, 3,5,9-Trimethyldeca-2,8-dien-1-yl acetate]

Test system: Klebsiella pneumoniae ATCC 700603
Experiment: Micro-dilution broth MIC, Klebsiella pneumoniae
Assay type: cell-based
Settings: ATCC700603, 24 h, 37 °C, read-out: Minimum Inhibitory Concentrations MIC
Method: as §1, §2

MIC [µg/mL] | Compound
24 | CC(=O)OCC=C(C)CCC=C(C)C(C)CCC=C(C)C (stereo not drawn) [Compound 30, 3,7,8,12-Tetramethyltrideca-2,6,11-trien-1-yl acetate]
22 | CC(=O)OC/C=C(\C)CCC=CC(C)CCC=C(C)C (stereo not drawn) [Compound 31, (E)-3,8,12-Trimethyltrideca-2,6,11-trien-1-yl acetate]
18 | CC(=O)OCC=C(C)CC(C)CCC=C(C)C (stereo not drawn) [Compound 33, 3,5,9-Trimethyldeca-2,8-dien-1-yl acetate]

Test system: Acinetobacter baumannii ATCC 19606
Experiment: Micro-dilution broth MIC, Acinetobacter baumannii
Assay type: cell-based
Settings: ATCC19606, 24 h, 37 °C, read-out: Minimum Inhibitory Concentrations MIC
Method: as §1, §2

MIC [µg/mL] | Compound
24 | CC(=O)OCC=C(C)CCC=C(C)C(C)CCC=C(C)C (stereo not drawn) [Compound 30, 3,7,8,12-Tetramethyltrideca-2,6,11-trien-1-yl acetate]
18 | CC(=O)OC/C=C(\C)CCC=CC(C)CCC=C(C)C (stereo not drawn) [Compound 31, (E)-3,8,12-Trimethyltrideca-2,6,11-trien-1-yl acetate]
22 | CC(=O)OCC=C(C)CC(C)CCC=C(C)C (stereo not drawn) [Compound 33, 3,5,9-Trimethyldeca-2,8-dien-1-yl acetate]

Test system: not listed separately
Experiment: MTT viability, MEWO
Assay type: cell-based, human
Settings: human, MEWO malignant melanoma cells, 1000 µM (IC50 exceeded 1000 µM), read-out: viability ± standard deviation at 1000 µM
Method: (§3) Cell lines and in vitro culture conditions: The human promyelocytic leukaemia cell line HL-60 was obtained from the Centre of Molecular and Macromolecular Biology in Łódź, Poland and was cultured in RPMI 1640 medium with 20% heat-inactivated fetal bovine serum (FBS). To reduce spontaneous differentiation, the cells were never allowed to exceed a concentration of 1.0 × 10^6 cells/mL. The human keratinocyte cell line HaCaT was obtained from Cell Lines Service, Germany (CLS) and cultured in DMEM medium with 10% FBS. Human colorectal adenocarcinoma HT29 and normal epithelial IEC-6 cell lines (from ATCC) were cultured in DMEM medium with 10% FBS. The human skin melanoma cell line MEWO (from CLS) was cultured in DMEM:F12 supplemented with 2 mM L-glutamine and 10% FBS. Human fibroblasts from gingiva isolated from original tissue, HFIB-G, (from Provitro) were cultured in Quantum 333 (from Immunique). The media were supplemented with 100 U/mL penicillin and 100 µg/mL streptomycin; all media components were obtained from Life Technologies. The adherent cell lines used in the studies were seeded on microplates before they exceeded 80% of confluence. Cells were cultured at 37 °C in 5% CO2 air atmosphere/95% air atmosphere.
(§4) Cytotoxic activity: The cells (the density for HL-60 was 0.5 × 10^4 cells/100 µL, otherwise it was 1 × 10^4 cells/100 µL) were plated into each well of 96-well microtiter plates and, after their attachment to the plate surface, treated with 10 µL of the indicated concentrations of compounds for 24 h. Viability was determined by MTT assay following the treatment. MTT (3-[4.5-dimethylthiazol-2-yl]-2.5-diphenyltetrazolium bromide; Sigma, St. Louis, MO, USA) solution was added to each well and incubated for another 4 h. The resulting MTT-formazan product was dissolved by the addition of lysis buffer (20% SDS and 50% DMF). The amount of formazan was determined by measuring absorbance at 570 nm with a Synergy 2 microplate reader (BioTek, Winooski, VT, USA) operated by the Gen5 program. The experiments were conducted three times with five replications. The results are expressed as an optical density ratio of the treatment to control. All data are presented as means ± SD.

Compound | viability at 24 h, 1000 µM [%]
CC(=O)OCC=C(C)CC(C)CCC=C(C)C (stereo not drawn) [Compound 33, 3,5,9-Trimethyldeca-2,8-dien-1-yl acetate] | 103

Test system: Malignant Melanoma MEWO
Experiment: MTT viability, MEWO
Assay type: cell-based, human
Settings: Homo sapiens, 24 h, range 10–1000 µM, read-out: half maximal inhibitory concentration (IC50), interpolated
Method: as §3, §4

IC50 [µM] | Compound
850 | CC(=O)OCC=C(C)CCC=C(C)C(C)CCC=C(C)C (stereo not drawn) [Compound 30, 3,7,8,12-Tetramethyltrideca-2,6,11-trien-1-yl acetate]
930 | CC(=O)OC/C=C(\C)CCC=CC(C)CCC=C(C)C (stereo not drawn) [Compound 31, (E)-3,8,12-Trimethyltrideca-2,6,11-trien-1-yl acetate]

Test system: not listed separately
Experiment: MTT viability, HT29
Assay type: cell-based, human
Settings: human, HT29 colorectal adenocarcinoma cells, 1000 µM (IC50 exceeded 1000 µM), read-out: viability ± standard deviation at 1000 µM
Method: as §3, §4

Compound | viability at 24 h, 1000 µM [%]
CC(=O)OCC=C(C)CCC=C(C)C(C)CCC=C(C)C (stereo not drawn) [Compound 30, 3,7,8,12-Tetramethyltrideca-2,6,11-trien-1-yl acetate] | 96
CC(=O)OC/C=C(\C)CCC=CC(C)CCC=C(C)C (stereo not drawn) [Compound 31, (E)-3,8,12-Trimethyltrideca-2,6,11-trien-1-yl acetate] | 107
CC(=O)OCC=C(C)CC(C)CCC=C(C)C (stereo not drawn) [Compound 33, 3,5,9-Trimethyldeca-2,8-dien-1-yl acetate] | 110

Test system: Promyelocytic Leukaemia HL-60
Experiment: MTT viability, HL-60
Assay type: cell-based, human
Settings: Homo sapiens, HL-60, 24 h, HL-60, MTT, range 10–1000 µM, read-out: half maximal inhibitory concentration (IC50), interpolated
Method: as §3, §4

IC50 [µM] | Compound
289 | CC(=O)OCC=C(C)CCC=C(C)C(C)CCC=C(C)C (stereo not drawn) [Compound 30, 3,7,8,12-Tetramethyltrideca-2,6,11-trien-1-yl acetate]
350 | CC(=O)OC/C=C(\C)CCC=CC(C)CCC=C(C)C (stereo not drawn) [Compound 31, (E)-3,8,12-Trimethyltrideca-2,6,11-trien-1-yl acetate]
400 | CC(=O)OCC=C(C)CC(C)CCC=C(C)C (stereo not drawn) [Compound 33, 3,5,9-Trimethyldeca-2,8-dien-1-yl acetate]

Test system: not listed separately
Experiment: MTT viability, HFIG
Assay type: cell-based, human
Settings: human, HFIG (HFIB-G) gingival fibroblasts, 1000 µM (IC50 exceeded 1000 µM), read-out: viability ± standard deviation at 1000 µM
Method: as §3, §4

Compound | viability at 24 h, 1000 µM [%]
CC(=O)OCC=C(C)CCC=C(C)C(C)CCC=C(C)C (stereo not drawn) [Compound 30, 3,7,8,12-Tetramethyltrideca-2,6,11-trien-1-yl acetate] | 105
CC(=O)OCC=C(C)CC(C)CCC=C(C)C (stereo not drawn) [Compound 33, 3,5,9-Trimethyldeca-2,8-dien-1-yl acetate] | 100

Test system: Fibroblasts HFIG
Experiment: MTT viability, HFIG
Assay type: cell-based, human
Settings: Homo sapiens, Fibroblast, 24 h, range 10–1000 µM, read-out: half maximal inhibitory concentration (IC50), interpolated
Method: as §3, §4

Compound | IC50 [µM]
CC(=O)OC/C=C(\C)CCC=CC(C)CCC=C(C)C (stereo not drawn) [Compound 31, (E)-3,8,12-Trimethyltrideca-2,6,11-trien-1-yl acetate] | 850

Test system: not listed separately
Experiment: MTT viability, HaCaT
Assay type: cell-based, human
Settings: human, HaCaT keratinocytes, 1000 µM (IC50 exceeded 1000 µM), read-out: viability ± standard deviation at 1000 µM
Method: as §3, §4

Compound | viability at 24 h, 1000 µM [%]
CC(=O)OC/C=C(\C)CCC=CC(C)CCC=C(C)C (stereo not drawn) [Compound 31, (E)-3,8,12-Trimethyltrideca-2,6,11-trien-1-yl acetate] | 98
CC(=O)OCC=C(C)CC(C)CCC=C(C)C (stereo not drawn) [Compound 33, 3,5,9-Trimethyldeca-2,8-dien-1-yl acetate] | 101

Test system: Keratinocytes HaCaT
Experiment: MTT viability, HaCaT
Assay type: cell-based, human
Settings: Homo sapiens, 24 h, range 10–1000 µM, read-out: half maximal inhibitory concentration (IC50), interpolated
Method: as §3, §4

Compound | IC50 [µM]
CC(=O)OCC=C(C)CCC=C(C)C(C)CCC=C(C)C (stereo not drawn) [Compound 30, 3,7,8,12-Tetramethyltrideca-2,6,11-trien-1-yl acetate] | 900

Test system: not listed separately
Experiment: MTT viability, IEC6
Assay type: cell-based
Settings: rat, IEC-6 small intestine epithelial cells, 1000 µM (IC50 exceeded 1000 µM), read-out: viability ± standard deviation at 1000 µM
Method: as §3, §4

Compound | viability at 24 h, 1000 µM [%]
CC(=O)OCC=C(C)CCC=C(C)C(C)CCC=C(C)C (stereo not drawn) [Compound 30, 3,7,8,12-Tetramethyltrideca-2,6,11-trien-1-yl acetate] | 86
CC(=O)OC/C=C(\C)CCC=CC(C)CCC=C(C)C (stereo not drawn) [Compound 31, (E)-3,8,12-Trimethyltrideca-2,6,11-trien-1-yl acetate] | 94
CC(=O)OCC=C(C)CC(C)CCC=C(C)C (stereo not drawn) [Compound 33, 3,5,9-Trimethyldeca-2,8-dien-1-yl acetate] | 95
